Results published in patent US20260327232A1, “Heteroaryl Compounds as Ligand Directed Degraders of IRAK4” (Celgene Corporation, priority 2023, published 2026).
Where a name gives a salt, the structure may show the parent alone.

What was measured:
IRAK4 [1] = target: T1, IRAK4 (Homo sapiens, UniProt Q9NWZ3); experiment: ALE THP1 HTRF (IRAK4 in THP1 cell lysates, Homogeneous Time Resolved Fluorescence); format: cell-based; design: THP1 Homogeneous Time Resolved Fluorescence (ALE THP1 HTRF) Procedure; endogenous in cells; host or cells: THP1; details: THP1 cells
T1 sequence (Q9NWZ3 1-460): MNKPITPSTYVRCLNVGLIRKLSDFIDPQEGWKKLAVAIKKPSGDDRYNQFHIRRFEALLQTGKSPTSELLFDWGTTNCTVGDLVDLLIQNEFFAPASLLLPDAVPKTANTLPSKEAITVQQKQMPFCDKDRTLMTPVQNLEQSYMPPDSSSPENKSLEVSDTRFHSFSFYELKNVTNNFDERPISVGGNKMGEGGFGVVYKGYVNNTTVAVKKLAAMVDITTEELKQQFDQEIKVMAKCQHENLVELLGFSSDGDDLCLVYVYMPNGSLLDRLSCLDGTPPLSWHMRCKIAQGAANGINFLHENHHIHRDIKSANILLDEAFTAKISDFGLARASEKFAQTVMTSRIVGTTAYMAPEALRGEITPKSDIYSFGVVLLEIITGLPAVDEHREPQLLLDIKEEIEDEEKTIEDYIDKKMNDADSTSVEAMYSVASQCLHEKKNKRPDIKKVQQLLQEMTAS
Experimental: Cell culture media was prepared in a tissue culture hood in a sterile environment by adding 10% FBS and 1% Penicillin Streptomycin to 500 mL no phenol red RPMI 1640 media. The media was filtered through a Nalgene Bottle Top Filter and stored at 4° C.
For Homogenous Time Resolved Fluorescence (HTRF) assays, a Cisbio HTRF kit was used, which included: Lysis Buffer #1 4×, Blocking Reagent #3 100×, 20× Antibody 1 (Anti-IRAK4 d2), 20× Antibody 2 (Anti-IRAK4 k), and Detection Buffer.
4× Lysis Buffer was stored at 4° C. For use as 1× Lysis buffer, the 4× solution was diluted with de-ionized water (distilled water, Gibco Cat. #15230279) and 100× Blocking Reagent in a 1:3:0.04 volume ratio.
20× Antibody Solution aliquots were stored in −80° C. and the Detection Buffer was stored in 4° C. For use as a 1× Antibody Solution, the 20× Antibody Solution aliquot was diluted with Detection Buffer in a 1:19 volume ratio.
Cells were lysed at room temperature for 45 min with shaking. A BCA protein assay was performed and normalization was conducted to the desired total protein concentration with 1× lysis buffer. Next, 1× Antibody Solutions were prepared by adding 380 μL Detection Buffer to 20 μL 20× Antibody Solution aliquots and mixing well. 1× Antibody Solutions were combined 1:1 and briefly vortexed. For control wells, 20 μL 1× anti IRAK4-k Antibody Solution was saved. The 384-well plate (ProxiPlate-384 Plus, Perkin Elmer Cat. #6008289) was loaded by adding 4 μL of the mixed Antibody Solution to empty wells using a single channel repeater. Using a multi-channel repeater, 16 μL lysate was added per well, and any bubbles that were formed were popped with 20 μL pipette tips and Kimwipe edges. In column 10, triplicates of each control was prepared. In wells A10, B10, and C10, buffer control was prepared by adding 16 μL Lysis Buffer and 4 μL Detection Buffer. In wells D10, E10, and F10, cryptate control was prepared by adding 16 μL Lysis Buffer, 2 μL Detection Buffer, and 2 μL 1× anti IRAK4-k Antibody Solution. In wells G10, H10, and 110, a negative control was prepared by adding 16 μL Lysis Buffer and 4 μL mixed Antibody Solution. The plate was sealed with a clear seal and covered with an aluminum lid. The plate was spun down at 800 g for 5 min and incubated in the dark at room temperature overnight. The next day, the plate was spun down at 800 g for 5 min. The samples were analyzed by a plate reader (Envision, PerkinElmer) using the Desnor 384 HTRF program.

IRAK4 [2] = target: T1, IRAK4; experiment: IRAK4 PhosphoSens Biochemical Assay (BIOCHEM); details: 200 μM ATP, 10 μM peptide substrate AQT0326, 1 nM IRAK4, room temperature, 240 minutes

| SMILES | EC50 (IRAK4 [1]) [nM] | IC50 (IRAK4 [2]) [nM] |
| --- | --- | --- |
| Cn1nc(C2CCC(=O)NC2=O)c2ccc(NC3CN(C[C@H]4CC[C@H](n5cc(NC(=O)c6cnn7ccc(N8C[C@H](N)C[C@@H](F)C8)nc67)c(C(F)F)n5)CC4)C3)cc21 (stereo partly shown) [P-13] | 1 | < 0.5 |
| Cn1nc(C2CCC(=O)NC2=O)c2cccc(NC3CCN(C(=O)[C@H]4CC[C@H](n5cc(NC(=O)c6cnn7ccc(N8C[C@H](N)C[C@@H](F)C8)nc67)c(C(F)F)n5)CC4)CC3)c21 (stereo partly drawn) [P-9, 5-((3R,5R)-3-amino-5-fluoropiperidin-1-yl)-N-(3-(difluoromethyl)-1-((1r,4r)-4-(4-((3-(2,6-dioxopiperidin-3-yl)-1-methyl-1H-indazol-7-yl)amino)piperidine-1-carbonyl)cyclohexyl)-1H-pyrazol-4-yl)pyrazolo[1,5-a]pyrimidine-3-carboxamide hydrochloride] | 4 | < 0.5 |
| CN(CC[C@H]1CC[C@H](n2cc(NC(=O)c3cnn4ccc(N5CCOCC5)nc34)c(C(F)F)n2)CC1)C1CCN(c2ccc3c(C4CCC(=O)NC4=O)nn(C)c3c2)CC1 (stereo partly shown) [P-38] | > 10000 | < 0.5 |
| Cn1nc(C2CCC(=O)NC2=O)c2cccc(N3CCN(C[C@H]4CC[C@H](n5cc(NC(=O)c6cnn7ccc(N8C[C@H](N)C[C@@H](F)C8)nc67)c(C(F)F)n5)CC4)CC3)c21 (stereo partly shown) [P-8] | 7 | < 0.5 |
| CN(C[C@H]1CC[C@H](n2cc(NC(=O)c3cnn4ccc(NCCN)nc34)c(C(F)F)n2)CC1)C1CCN(c2ccc3c(C4CCC(=O)NC4=O)nn(C)c3c2)CC1 (stereo partly shown) [P-45] | 4 | < 0.5 |
| CN(C[C@H]1CC[C@H](n2cc(NC(=O)c3cnn4ccc(N5CCOCC5)nc34)c(C(F)F)n2)CC1)C1CCN(c2ccc3c(C4CCC(=O)NC4=O)nn(C)c3c2)CC1 (stereo partly shown) [P-29, N-[3-(Difluoromethyl)-1-[4-[[[1-[3-(2,6-dioxo-3-piperidyl)-1-methyl-indazol-6-yl]-4-piperidyl]-methyl-amino]methyl]cyclohexyl]pyrazol-4-yl]-5-morpholino-pyrazolo[1,5-a]pyrimidine-3-carboxamide] | > 10000 | < 0.5 |
| Cn1nc(C2CCC(=O)NC2=O)c2ccc(N3CCC(NC(=O)[C@H]4CC[C@H](n5cc(NC(=O)c6cnn7ccc(N8C[C@H](N)C[C@@H](F)C8)nc67)c(C(F)F)n5)CC4)CC3)cc21 (stereo partly drawn) [P-4, 5-((3R,5R)-3-amino-5-fluoropiperidin-1-yl)-N-(3-(difluoromethyl)-1-((1r,4r)-4-((1-(3-(2,6-dioxopiperidin-3-yl)-1-methyl-1H-indazol-6-yl)piperidin-4-yl)carbamoyl)cyclohexyl)-1H-pyrazol-4-yl)pyrazolo[1,5-a]pyrimidine-3-carboxamide hydrochloride] | 5.6 | < 0.5 |
| CN(CC[C@H]1CC[C@H](n2cc(NC(=O)c3cnn4ccc(N5CCOCC5)nc34)c(C(F)F)n2)CC1)C1CCN(c2cccc3c(C4CCC(=O)NC4=O)nn(C)c23)CC1 (stereo partly shown) [P-35] | 4 | 0.8 |
| CN(c1ccc2c(C3CCC(=O)NC3=O)nn(C)c2c1)C1CCN(C[C@H]2CC[C@H](n3cc(NC(=O)c4cnn5ccc(N6CCOCC6)nc45)c(C(F)F)n3)CC2)CC1 (stereo partly shown) [P-32] | 1 | < 0.5 |
| CN(c1ccc2c(C3CCC(=O)NC3=O)nn(C)c2c1)C1CCN(CC[C@H]2CC[C@H](n3cc(NC(=O)c4cnn5ccc(N6C[C@H](N)C[C@@H](F)C6)nc45)c(C(F)F)n3)CC2)CC1 (stereo partly shown) [P-33] | 10 | < 0.5 |
| Cn1nc(C2CCC(=O)NC2=O)c2ccc(N[C@H]3CCN(C[C@H]4CC[C@H](n5cc(NC(=O)c6cnn7ccc(N8C[C@H](N)C[C@@H](F)C8)nc67)c(C(F)F)n5)CC4)C[C@H]3F)cc21 (stereo partly shown) [P-23] | 4 | < 0.5 |
| C[C@@H]1CN(CCN2CCC(n3cc(NC(=O)c4cnn5ccc(N6C[C@H](N)C[C@@H](F)C6)nc45)c(C(F)F)n3)CC2)CCN1c1ccc2c(C3CCC(=O)NC3=O)nn(C)c2c1 (stereo partly drawn) [P-37, 5-((3R,5R)-3-amino-5-fluoropiperidin-1-yl)-N-(3-(difluoromethyl)-1-(1-(2-((3R)-4-(3-(2,6-dioxopiperidin-3-yl)-1-methyl-1H-indazol-6-yl)-3-methylpiperazin-1-yl)ethyl)piperidin-4-yl)-1H-pyrazol-4-yl)pyrazolo[1,5-a]pyrimidine-3-carboxamide] | 5 | < 0.5 |
| Cn1nc(C2CCC(=O)NC2=O)c2ccc(N3CCN(C[C@H]4CC[C@H](n5cc(NC(=O)c6cnn7ccc(N8C[C@H](N)C[C@@H](F)C8)nc67)c(C(F)F)n5)CC4)CC3)cc21 (stereo partly shown) [P-14] | > 10000 | < 0.5 |
| Cn1nc(C2CCC(=O)NC2=O)c2ccc(NC3CCN(C(=O)[C@H]4CC[C@H](n5cc(NC(=O)c6cnn7ccc(N8C[C@H](N)C[C@@H](F)C8)nc67)c(C(F)F)n5)CC4)CC3)cc21 (stereo partly shown) [P-1] | > 10000 | 0.5 |
| Cn1nc(C2CCC(=O)NC2=O)c2ccc(N[C@@H]3CCN(CC4CCC(n5cc(NC(=O)c6cnn7ccc(N8C[C@H](N)C[C@@H](F)C8)nc67)c(C(F)F)n5)CC4)C[C@H]3F)cc21 (stereo partly shown) [P-22] | 5 | < 0.5 |
| CN(c1ccc2c(C3CCC(=O)NC3=O)nn(C)c2c1)C1CCN(C[C@H]2CC[C@H](n3cc(NC(=O)c4cnn5ccc(N6C[C@H](N)C[C@@H](F)C6)nc45)c(C(F)F)n3)CC2)CC1 (stereo partly shown) [P-31] | 3 | < 0.5 |
| Cn1nc(C2CCC(=O)NC2=O)c2cccc(N3CCN(CCC4CCC(n5cc(NC(=O)c6cnn7ccc(N8C[C@H](N)C[C@@H](F)C8)nc67)c(C(F)F)n5)CC4)CC3)c21 (stereo partly shown) [P-11] | 17 | < 0.5 |
| Cn1nc(C2CCC(=O)NC2=O)c2ccc(NC3CCN(CC4CCC(n5cc(NC(=O)c6cnn7ccc(N8C[C@H](N)C[C@H](F)C8)nc67)c(C(F)F)n5)CC4)CC3)cc21 (stereo partly shown) [P-19] | 5 | < 0.5 |
| Cn1nc(C2CCC(=O)NC2=O)c2ccc(OC3CCN(C[C@H]4CC[C@H](n5cc(NC(=O)c6cnn7ccc(N8C[C@H](N)C[C@@H](F)C8)nc67)c(C(F)F)n5)CC4)CC3)cc21 (stereo partly shown) [P-26] | 11 | < 0.5 |
| CN(C[C@H]1CC[C@H](n2cc(NC(=O)c3cnn4ccc(N5CCOC5)nc34)c(C(F)F)n2)CC1)C1CCN(c2ccc3c(C4CCC(=O)NC4=O)nn(C)c3c2)CC1 (stereo partly shown) [P-41] | > 10000 | < 0.5 |
| C[C@H]1CN(CCN2CCC(n3cc(NC(=O)c4cnn5ccc(N6C[C@H](N)C[C@@H](F)C6)nc45)c(C(F)F)n3)CC2)CCN1c1ccc2c(C3CCC(=O)NC3=O)nn(C)c2c1 (stereo partly shown) [P-36] | 5 | < 0.5 |
| CN(C[C@H]1CC[C@H](n2cc(NC(=O)c3cnn4ccc(N5CC[C@@H](c6ccn(C)n6)C5)nc34)c(C(F)F)n2)CC1)C1CCN(c2ccc3c(C4CCC(=O)NC4=O)nn(C)c3c2)CC1 (stereo partly shown) [P-47] | 3750 | 2.4 |
| CN(C[C@H]1CC[C@H](n2cc(NC(=O)c3cnn4ccc(N5CC[C@H](c6ccn(C)n6)C5)nc34)c(C(F)F)n2)CC1)C1CCN(c2ccc3c(C4CCC(=O)NC4=O)nn(C)c3c2)CC1 (stereo partly shown) [P-46] | > 3000 | 0.8 |
| CN(C)c1ccn2ncc(C(=O)Nc3cn([C@H]4CC[C@H](CN(C)C5CCN(c6ccc7c(C8CCC(=O)NC8=O)nn(C)c7c6)CC5)CC4)nc3C(F)F)c2n1 (stereo partly shown) [P-43] | > 10000 | < 0.5 |
| Cc1ccc(Nc2ccn3ncc(C(=O)Nc4cn([C@H]5CC[C@H](CN(C)C6CCN(c7ccc8c(C9CCC(=O)NC9=O)nn(C)c8c7)CC6)CC5)nc4C(F)F)c3n2)cn1 (stereo partly shown) [P-48] | 3510 | – |
